Common to all, as to format: binding
For assay [1], the target named is T1, DmCRY (Drosophila melanogaster, UniProt O77059, R298E/Q311E).
T1 construct: gene cry
The assay is described as follows: UV-visible absorption of purified protein ([…] nm), FAD occupancy. As to conditions: co-purified FAD.

Assay [2] concerns the target T2, HsCRY2 (Homo sapiens, UniProt Q49AN0).
T2 construct: gene CRY2; full length 1-593, 39-aa N-terminal 6xHis extension (pRSET-A), E. coli SoluBL21, apo-protein
T2 sequence (Q49AN0 1-593): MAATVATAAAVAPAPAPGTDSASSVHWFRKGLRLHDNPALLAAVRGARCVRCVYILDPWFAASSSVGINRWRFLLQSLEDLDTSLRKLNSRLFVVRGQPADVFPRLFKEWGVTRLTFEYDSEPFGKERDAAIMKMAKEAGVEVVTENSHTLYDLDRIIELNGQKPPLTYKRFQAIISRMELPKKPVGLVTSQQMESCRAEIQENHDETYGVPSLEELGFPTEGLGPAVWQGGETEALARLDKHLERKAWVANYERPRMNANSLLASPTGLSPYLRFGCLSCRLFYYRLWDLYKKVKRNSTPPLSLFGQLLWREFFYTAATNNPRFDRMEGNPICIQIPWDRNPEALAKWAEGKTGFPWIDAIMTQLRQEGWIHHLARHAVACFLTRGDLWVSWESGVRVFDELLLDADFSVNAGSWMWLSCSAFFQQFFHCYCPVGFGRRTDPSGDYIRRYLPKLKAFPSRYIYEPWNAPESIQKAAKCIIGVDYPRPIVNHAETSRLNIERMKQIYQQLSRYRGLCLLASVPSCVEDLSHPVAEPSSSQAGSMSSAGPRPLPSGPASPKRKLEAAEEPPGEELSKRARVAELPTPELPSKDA
The assay can be described thus: UV-visible absorption titration of apo-protein into constant FAD, global fit.

The target of assay [3] is T3, DmCRY (Drosophila melanogaster, UniProt O77059, R237H).
T3 construct: gene cry
T3 sequence (O77059 1-539 R237H): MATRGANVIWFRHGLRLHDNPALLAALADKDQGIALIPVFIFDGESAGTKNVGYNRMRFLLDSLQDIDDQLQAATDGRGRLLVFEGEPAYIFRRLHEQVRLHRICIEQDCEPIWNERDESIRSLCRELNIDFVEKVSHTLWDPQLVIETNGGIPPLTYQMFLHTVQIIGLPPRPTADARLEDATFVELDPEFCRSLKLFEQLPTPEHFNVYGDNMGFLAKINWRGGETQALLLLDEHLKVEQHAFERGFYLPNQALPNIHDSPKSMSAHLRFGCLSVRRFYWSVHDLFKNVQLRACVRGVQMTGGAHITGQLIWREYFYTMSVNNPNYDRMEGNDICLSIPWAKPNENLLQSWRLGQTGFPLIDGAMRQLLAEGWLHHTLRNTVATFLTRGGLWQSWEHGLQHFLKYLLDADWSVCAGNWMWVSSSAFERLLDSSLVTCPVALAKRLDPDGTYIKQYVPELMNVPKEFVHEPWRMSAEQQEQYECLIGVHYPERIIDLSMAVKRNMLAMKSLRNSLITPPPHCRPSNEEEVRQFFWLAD
The assay can be described thus: UV-visible absorption of purified protein ([…] nm), FAD occupancy. As to conditions: co-purified FAD.

The target of assay [4] is T4, DmCRY (Drosophila melanogaster, UniProt O77059, N419S).
T4 construct: gene cry
T4 sequence (O77059 1-539 N419S): as the sequence (O77059 1-539 R237H) above, with H237R, N419S counted along it
The assay is described as above. As to conditions: co-purified FAD.

The target of assay [5] is T5, DmCRY (Drosophila melanogaster, UniProt O77059, R298E).
T5 construct: gene cry
T5 sequence (O77059 1-539 R298E): as the sequence (O77059 1-539 R237H) above, with H237R, R298E counted along it
The description is as above. As to conditions: co-purified FAD.

For assay [6], the target named is T6, DmCRY (Drosophila melanogaster, UniProt O77059).
T6 construct: gene cry
T6 sequence (O77059 1-539): as the sequence (O77059 1-539 R237H) above, with H237R counted along it
The assay is described as follows: UV-visible absorption and visible CD of purified protein. As to conditions: co-purified oxidized FAD; near-stoichiometric.

Another assay deals with T7, SbCRY1a (Sylvia borin, UniProt Q6ZZY0).
T7 construct: gene CRY1; full length 1-620, 36-aa N-terminal 6xHis extension (pRSET-A), E. coli SoluBL21, apo-protein
T7 sequence (Q6ZZY0 1-620): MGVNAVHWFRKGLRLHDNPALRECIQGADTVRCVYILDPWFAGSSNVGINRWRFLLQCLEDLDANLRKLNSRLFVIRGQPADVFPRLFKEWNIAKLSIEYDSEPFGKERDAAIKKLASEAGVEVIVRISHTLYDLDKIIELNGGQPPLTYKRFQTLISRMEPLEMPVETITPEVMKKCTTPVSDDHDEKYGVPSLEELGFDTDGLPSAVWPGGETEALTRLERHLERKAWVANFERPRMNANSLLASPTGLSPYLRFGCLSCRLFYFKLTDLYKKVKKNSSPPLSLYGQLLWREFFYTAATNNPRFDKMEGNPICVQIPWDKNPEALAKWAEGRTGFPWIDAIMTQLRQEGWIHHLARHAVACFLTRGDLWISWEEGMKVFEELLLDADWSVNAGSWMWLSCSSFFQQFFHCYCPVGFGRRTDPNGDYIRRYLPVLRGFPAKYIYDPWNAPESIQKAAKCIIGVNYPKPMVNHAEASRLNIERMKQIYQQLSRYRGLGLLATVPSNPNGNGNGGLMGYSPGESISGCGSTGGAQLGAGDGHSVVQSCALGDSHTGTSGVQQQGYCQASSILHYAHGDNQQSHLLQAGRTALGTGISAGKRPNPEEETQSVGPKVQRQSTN
The assay can be described thus: UV-visible absorption titration of apo-protein into constant FAD, global fit.

In assay [7] the target is T8, DmCRY (Drosophila melanogaster, UniProt O77059, Q311E).
T8 construct: gene cry
T8 sequence (O77059 1-539 Q311E): as the sequence (O77059 1-539 R237H) above, with H237R, Q311E counted along it
The assay can be described thus: UV-visible absorption of purified protein ([…] nm), FAD occupancy. As to conditions: co-purified FAD.

Assay [8] deals with T9, DmCRY (Drosophila melanogaster, UniProt O77059, R237E).
T9 construct: gene cry
T9 sequence (O77059 1-539 R237E): as the sequence (O77059 1-539 R237H) above, with H237E counted along it
Described as above. As to conditions: co-purified FAD.

Assay [9] deals with T10, HsCRY2 (Homo sapiens, UniProt Q49AN0, H243R/S415N).
T10 construct: gene CRY2; full length 1-593, 39-aa N-terminal 6xHis extension (pRSET-A), E. coli SoluBL21, apo-protein
T10 sequence (Q49AN0 1-593 H243R/S415N): T2 sequence (Q49AN0 1-593) with H243R, S415N
The assay can be described thus: UV-visible absorption after incubation in excess FAD and spin filtration. As to conditions: occupancy after incubation in excess FAD and removal of free FAD.

The target of assay [10] is T11, DmCRY (Drosophila melanogaster, UniProt O77059, R237E/R298E).
T11 construct: gene cry
T11 sequence (O77059 1-539 R237E/R298E): as the sequence (O77059 1-539 R237H) above, with H237E, R298E counted along it
The assay is described as follows: UV-visible absorption of purified protein ([…] nm), FAD occupancy. As to conditions: co-purified FAD.

A further assay has as its target T12, HsCRY1 (Homo sapiens, UniProt Q16526).
T12 construct: gene CRY1; full length 1-586, 39-aa N-terminal 6xHis extension (pRSET-A), E. coli SoluBL21, apo-protein
T12 sequence (Q16526 1-586): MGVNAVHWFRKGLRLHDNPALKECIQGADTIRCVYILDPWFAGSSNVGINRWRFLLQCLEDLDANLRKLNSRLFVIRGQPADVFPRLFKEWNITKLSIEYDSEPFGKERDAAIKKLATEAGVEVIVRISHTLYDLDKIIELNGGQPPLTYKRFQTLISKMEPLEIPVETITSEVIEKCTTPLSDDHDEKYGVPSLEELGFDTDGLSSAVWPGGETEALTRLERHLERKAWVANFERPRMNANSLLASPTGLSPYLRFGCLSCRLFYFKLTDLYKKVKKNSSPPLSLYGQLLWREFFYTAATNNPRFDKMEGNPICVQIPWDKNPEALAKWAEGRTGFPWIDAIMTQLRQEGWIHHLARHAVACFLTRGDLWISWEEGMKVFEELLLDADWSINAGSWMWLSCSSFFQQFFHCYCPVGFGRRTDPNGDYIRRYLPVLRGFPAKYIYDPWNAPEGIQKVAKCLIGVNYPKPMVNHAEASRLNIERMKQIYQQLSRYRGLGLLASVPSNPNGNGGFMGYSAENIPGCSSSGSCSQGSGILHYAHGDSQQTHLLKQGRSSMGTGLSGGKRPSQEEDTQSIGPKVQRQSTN
The assay is described as follows: UV-visible absorption titration of apo-protein into constant FAD, global fit.

Residue numbers refer to the chain shown, from its start.

T1 sequence (O77059 1-539 R298E/Q311E): as the sequence (O77059 1-539 R237H) above, with H237R, R298E, Q311E counted along it

By Kd is commonly meant the free concentration of one partner at which half of the binding sites on the other are occupied at equilibrium, for simple one-to-one binding. Read a low Kd as higher affinity. Regarding `Cc1cc2nc3c(=O)[nH]c(=O)nc-3n(C[C@H](O)[C@H](O)[C@H](O)COP(=O)(O)OP(=O)(O)OC[C@H]3O[C@@H](n4cnc5c(N)ncnc54)[C@H](O)[C@@H]3O)c2cc1C` [FAD], the “% reduction of FAD occupancy” value was ~ 58% on DmCRY [1], ~ 12% at DmCRY [8] and ~ 16% at DmCRY [10]. In addition, the Kd at HsCRY2 [2] came to 68 µM; at SbCRY1a it was 97 µM; on HsCRY1, 16 µM. Also, the FAD occupancy entry on DmCRY [3], on DmCRY [4], on DmCRY [5] and at DmCRY [7] was “single point mutations only had a minimal impact on FAD occupancy” in each case. Also, the “UV-visible absorption and visible CD of purified protein” value on DmCRY [6] is “UV-visible absorption spectrum of DmCRY shows near-stoichiometric binding of oxidized FAD”. On HsCRY2 [9], the “% bound FAD” value is listed as ~ 30%.

The values above are taken from article PMC5357904, “Vertebrate Cryptochromes are Vestigial Flavoproteins” (Scientific Reports, 2017).
